Patent US9162992B2, “Compounds and compositions for treatment of breathing control disorders or diseases” (GALLEON PHARMACEUTICALS, INC., priority 2010, dated 2015)
Structures can show the parent of a compound that is named as a salt. Each block holds one molecule with its values, some of them ahead of it.

Assays:
[1] = test system: spontaneously breathing rats; assay: Respiratory rate, tidal volume and minute volume in urethane-anesthetized rat; format: in vivo; settings: IV; compared to vehicle
Description: Adult male Sprague Dawley rats (250-350 g body weight; Harlan, Indianapolis, Ind., USA) were anesthetized with isoflurane in oxygen. The femoral vein was cannulated to administer compounds. Body temperature was maintained between 36.0 and 37.2° C. throughout the experiment. The cervical portion of the trachea was cannulated and attached to a rat-sized pneumotachometer for measuring tracheal airflow. After surgical instrumentation was complete, isoflurane was slowly discontinued, while urethane (1.8 g/kg) was administered intravenously over 10-15 minutes to maintain anesthesia. Rats were permitted to breathe spontaneously and inspire 100% oxygen. At least 30-45 minutes after discontinuing isoflurane, baseline tracheal airflow was recorded for 20-30 minutes prior to compound administration. Vehicle and test compound were administered intravenously over 15-25 seconds and at a constant volume (1 mL/kg). At least 15-min elapsed between each dose of compound administered. Tracheal airflow was recorded continuously before, during and after compound administration. Tidal volume was derived from the integral of airflow, and respiratory rate was derived from the number of inspiratory cycles per minute. Minute volume was calculated as the product of tidal volume and respiratory rate (FIG. 32).

[2] = test system: spontaneously breathing rats; assay: Minute ventilation (MV) and cardiovascular parameters in naive rats; format: in vivo, rat; design: unit not given here; settings: 1 mpk IV; 15/65/20; pH 5
Description: All surgical procedures were performed under anesthesia induced by 2% isoflurane in compressed medical grade air. With rats in supine position, the right femoral vein was catheterized using polyethylene tubing (PE-50). This catheter was used for fluid and drug administration. Simultaneously, the right femoral artery was also catheterized for monitoring blood pressure and heart rate. In order to measure the respiratory parameters in spontaneously breathing rats, trachea was intubated using 13 gauge tracheal tube (2.5 mm ID, Instech Solomon, Pa.).
After establishing a stable base-line at 1.5% isoflurane, compounds (typically at a dose of 1 mpk) were administered IV, and ventilatory parameters were generated from spontaneously breathing rats, along with cardiovascular output (mean arterial pressure (MAP) and heart rate). Maximum peak minute ventilatory (MV) responses (MPR), along with changes in minute ventilation versus baseline (AMV) were obtained as shown in the tables below.

human KCNK9/TASK-3 = target: T1, human KCNK9/TASK-3 (Homo sapiens, UniProt Q9NPC2); assay: Thallium flux through human TASK-3 (KCNK9-HEK cells); format: cell-based; settings: Tl+ flux; 3 nM to 30 μM; read-out: hTASK-3 IC50
T1 construct: expressed in transfected cells; host or cells: HEK cells (tetracycline-inducible)
T1 sequence (Q9NPC2 whole entry): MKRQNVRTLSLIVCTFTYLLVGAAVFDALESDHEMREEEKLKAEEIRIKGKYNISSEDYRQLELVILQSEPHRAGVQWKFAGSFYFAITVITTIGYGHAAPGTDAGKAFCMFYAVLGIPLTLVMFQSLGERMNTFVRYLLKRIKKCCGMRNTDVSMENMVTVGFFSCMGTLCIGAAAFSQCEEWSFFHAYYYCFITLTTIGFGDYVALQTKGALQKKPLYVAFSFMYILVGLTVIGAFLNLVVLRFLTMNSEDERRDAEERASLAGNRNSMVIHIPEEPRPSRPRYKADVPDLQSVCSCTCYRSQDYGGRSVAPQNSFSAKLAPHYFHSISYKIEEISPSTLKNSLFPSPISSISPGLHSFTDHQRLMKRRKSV
Description: (§1) CHO cells expressing recombinant tetracycline-inducible rat KCNK3/TASK-1 (KCNK3-CHO cells) were plated in poly-D-lysine coated 384-well plates at a density of 6,000 cells/well (50 μl/well of 120,000 cells/mL) and allowed to incubate for 72 hrs in the presence of 5% CO2 and 1 μg/mL tetracycline at 30° C. HEK cells expressing recombinant tetracycline-inducible human KCNK9/TASK-3 (KCNK9-HEK cells) were plated at a density of 15,000 cells per well (50 μl/well, 300,000 cells/mL) and incubated overnight at 37° C. and 5% CO2 in the presence of 1 μg/mL tetracycline.
(§2) Drug plates were generated from 10 mM 100% DMSO mother plates. Compounds were transferred to 384-well drug plates and titrated with sequential 1:3 dilutions in 100% DMSO for a total of 9 dilutions. A dilution plate is made by taking 2.4 μl from the mother plate and adding to […] of assay buffer for a 12% DMSO dilution plate. From this dilution plate, a final daughter plate is generated by taking 1 μA of the dilution plate and adding to 40 μA of assay buffer for a final DMSO concentration of 0.3%. Each compound was evaluated in duplicate and the concentration range evaluated was 3 nM to 30 μM.
(§3) When thallium was added to extracellular solution with a stimulus to open channels, Tl^+ flowed down its concentration gradient into the cells and channel activity was detected with an indicator dye, FluxOR™, that increased in cytosolic fluorescence. The FluxOR™ indicator dye was loaded into cells as a membrane permeable acetoxymethyl ester. On the day of each assay, FluxOR™ assay buffer was made fresh from Hank's Balanced Saline Solution (HBSS) buffered with 20 mM HEPES and pH adjusted to 7.4 with NaOH. Dye loading solution was prepared per manufacturer's instructions, and 25 μl of dye solution applied to each well with a multidropper after plating medium was removed manually from cells. Dye was allowed to load for 90 minutes at room temperature in the dark.
(§4) After the 90 min dye loading incubation and subsequent manual dye removal, 24 μl of the drug daughter plate was transfer to cell plates by a cybi-well system and then incubated at room temperature for 20 minutes to allow for equilibration within wells. Stimulation buffer was prepared from 5× chloride-free buffer, thallium, and potassium sulfate containing 5 times the desired final assay concentration of 10 mM K^+ 2.8 mM Tl^+. Cell plates were then transferred to an FDSS 6000 kinetic imaging plate reader (Hamamatsu). Fluorescence at 525 nm (excitation 488 nm) was measured for 10 seconds at 1 Hz to establish baseline for the entire plate. After baseline was established, 6 μl/well of stimulation buffer was added and fluorescence signal recorded for another 140 seconds.
(§5) From the fluorescence signals in the absence and presence of Galleon compounds, Inhibitory concentration curves were plotted and IC50 values were estimated using a curve fitting algorithm.

rat KCNK3/TASK-1 = target: T2, rat KCNK3/TASK-1 (Rattus norvegicus, UniProt O54912); assay: Thallium flux through rat TASK-1 (KCNK3-CHO cells); format: cell-based; settings: Tl+ flux; 3 nM to 30 μM; read-out: rTASK-1 IC50
T2 construct: expressed in transfected cells; host or cells: CHO cells (tetracycline-inducible)
T2 sequence (O54912 whole entry): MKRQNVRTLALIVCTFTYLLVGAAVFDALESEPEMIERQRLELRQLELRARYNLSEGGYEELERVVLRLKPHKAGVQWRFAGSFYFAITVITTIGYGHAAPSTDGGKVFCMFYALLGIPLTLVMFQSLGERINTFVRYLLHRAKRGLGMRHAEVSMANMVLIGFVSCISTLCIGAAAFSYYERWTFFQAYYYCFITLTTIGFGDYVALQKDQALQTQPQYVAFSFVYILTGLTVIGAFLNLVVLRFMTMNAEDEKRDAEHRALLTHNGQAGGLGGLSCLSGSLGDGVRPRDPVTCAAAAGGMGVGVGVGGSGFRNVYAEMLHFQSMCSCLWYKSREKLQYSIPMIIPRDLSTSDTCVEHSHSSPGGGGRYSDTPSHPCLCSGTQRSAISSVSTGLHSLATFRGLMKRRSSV
Description: as §1, §2, §3, §4, §5

[3] = Solubility of process impurity (observation); format: physicochemical
Text: Under certain conditions where the compounds of the present invention and their synthetic intermediates are exposed to acidic or alkaline aqueous environments, the bond between the aromatic heterocycle and the ring substituents may be susceptible to hydrolytic cleavage. For example, in the intermediates to compounds of formula (II-a), a halo substituent in the 2 position (Schemes 3 and 4) may be hydrolytically replaced with a hydroxyl group to yield N-(4,6-Bis(n-propylamino)-1,3,5-triazin-2-ol (CLXXVIII). Similarly, the amine substituents of compounds of formula (II-a) may be displaced by a hydroxyl group. Without wishing to be bound by theory, a series of chemical changes may occur to enable this substitution, such as a prior oxidation of the appended amine side chain, with hydrolytic replacement by hydroxyl as the final transformation. As a specific non-limiting example, the N,O-dimethylhydroxylamino substituent of N-(4,6-Bis-n-propylamino-[1,3,5]triazin-2-yl)-N,O-dimethyl-hydroxylamine (XXXV) may be partially displaced by hydroxyl during processing in the presence of water, forming (CLXXVIII) as a process impurity. […] It was unexpectedly observed that even at elevated temperatures (CLXXVIII) is very insoluble relative to the active ingredient. Thus, trace quantities of this compound in the API can be problematic in liquid formulations. […]

[4] = test system: morphine-induced respiratory depression; assay: Opioid-induced respiratory depression in the rat, plethysmography (minute ventilation); format: in vivo; settings: opioid-treated rat; plethysmography; FIG. 9
Description: Rats with pre-cannulated jugular vein (for administering drugs) were acclimated to plethysmography chambers for a minimum of 60 minutes, or until animals were no longer restless. Each animal was dosed with morphine sulfate (10 mg/kg), dissolved in sterile water at a concentration of 10 mg/mL (supplied by Baxter Healthcare Corporation), via injection into the jugular vein catheter over a period of 5-10 seconds.
Compound (XXXVI) was dissolved in 20% hydroxypropyl β-cyclodextran (20% bcd on graph) at a concentration of 0.45 mg/mL at pH 5. After a period of 5 min, compound (XXXVI), labeled as cmpd (A), was administered via infusion into the jugular vein at a dose of 0.10 mg/kg/min for 20 min and then at a dose of […] for 20 min (e.g., 20 μL/min/0.3 kg rat to yield […]).
After 20 minutes of infusion at this dose, the infusion pumps were turned off, and all animals were given a 20 minute recovery period, followed by a post-study analysis of rat health and behavior. […] Results are illustrated in FIG. 1.

[5] = test system: morphine-induced respiratory depression; assay: Effects of morphine and compound on arterial blood gases in the rat; format: in vivo; settings: opioid-treated rat
Description: Rats with pre-cannulated jugular vein and femoral arterial catheters (for administering drugs and obtaining blood samples respectively) were obtained from Harlan laboratories and kept at the animal facility at Galleon Pharmaceuticals until the experimental procedures. Each animal was dosed with morphine sulfate (10 mg/kg), dissolved in saline at a concentration of 10 mg/mL, via injection into the jugular vein over a period of 20 seconds with a 20 second flush of 0.9% NaCl saline. Prior to morphine administration, two 250 μL samples of arterial blood were aspirated from the femoral artery into a pre-heparinized syringe. The samples were analyzed on Radiometer's ABL Flex 800, where pO2, pCO2, pH, SaO2 and other parameters were recorded. Aspirated volumes of arterial blood were replaced by room temperature sterile saline (˜300 μL) slowly flushed back into the femoral arterial catheter of the rodent to prevent hypovolemia. Morphine was then administered and 2 minutes later another blood sample was taken.
The infusion started at t=15 minutes and ended at t=35 minutes. Arterial blood gas analysis occurred at time points t=12, 18, 25, 35, 40, 45, and 50 minutes.

- melting point: 123 to 126 °C
Compound: CCCNc1cc(N(C)OC)nc(NCCC)n1 (as salt: hydrogen sulfate) [CXXI, 2,6-Bis-(N-n-propylamino)-[1,3]pyrimidin-4-yl)-N,O-dimethyl-hydroxylamine hydrogen sulfate]

- IC50 (human KCNK9/TASK-3): > 30000 nM
- IC50 (rat KCNK3/TASK-1): 10 nM
Compound: CCCNc1nc(NC)nc(NCCC)n1 [CLXXII, N-(2,4-Bis-n-propylamino)-N-(6-methylamino)-[1,3,5]triazine]
- respiratory rate, tidal volume and minute volume [1]: increased both respiratory rate and tidal volume, and their product minute volume
- MV MPR [2]: 145
- MV ΔMV [2]: 106

- solubility in aqueous environments [3]: sparingly soluble
- solubility in most organic solvents [3]: very low solubility
Compound: CCCNc1nc(O)nc(NCCC)n1 [CLXXVIII]

Compound: CCCNc1nc(N(C)OC)c2cc[nH]c2n1 [CXLII, N-(2-Propylamino-7H-pyrrolo[2,3d]pyrimidin-4-yl)-N,O-dimethyl-hydroxylamine hydrochloride]
- minute ventilation (MV), reversal of opioid-induced respiratory depression [4]: reverse opioid-induced respiratory depression
- effects of opioid on blood gases and pH (pH, SaO2, pO2, pCO2) [5]: reverse the effects of opioid on blood gases and pH

- IC50 (human KCNK9/TASK-3): > 30000 nM
- IC50 (rat KCNK3/TASK-1): 50 nM
Compound: CCCNc1nc(NCCC)nc(NOC)n1.Cl [XLII, N-(4,6-Bis-n-propylamino-[1,3,5]triazin-2-yl)-O-methyl-hydroxylamine hydrochloride]
- respiratory rate, tidal volume and minute volume [1]: increased both respiratory rate and tidal volume, and their product minute volume
